Experiment [1] relates to GM3 expression on the cell surface, B16 mouse melanoma cells. The experiment is described as follows: cell based phenotypic assay, cell surface GM3 by antibody mediated immunofluorescence, B16 (GM3 B16 IC50). The conditions noted are these: B16 mouse melanoma cells, 50% inhibition of GM3 expression on the cell surface, read-out: GM3 B16 IC50. The procedure:
(§1) The cell based assay was performed in two different cell types, B16 and C32. Cell viability was also assessed in the second, cell-based assay.
(§2) The “Compound Number” in the table corresponds to the compound disclosed in the Example of the same number. […] The results of the cell based assays (performed in two different cell systems, i.e. B16 mouse melanoma or C32 human melanoma cells) are expressed as “GM3 B16 IC50” or “GM3 C32 IC50” for the B16 assay and the C32 assay, respectively. […] The results of the viability assays are expressed as “Viability, B16 IC50” or “Viability, C32 IC50”, respectively. These values represent the concentration of the compound causing 50% cell death. Values greater than 10 represent a lack of cell death.

Experiment [2] relates to GM3 expression on the cell surface, C32 human melanoma cells. Description: cell based phenotypic assay, cell surface GM3 by antibody mediated immunofluorescence, C32 (GM3 C32 IC50). The conditions noted are these: C32 human melanoma cells, 50% inhibition of GM3 expression on the cell surface, read-out: GM3 C32 IC50. The procedure: as §1, §2
Experiment [3] has as its system C32 human melanoma cells. Description: cell viability in the C32 cell-based assay (Viability, C32 IC50). The conditions noted are these: concentration causing 50% cell death, values greater than 10 represent a lack of cell death, read-out: Viability, C32 IC50. On the procedure:
as §1, §2

Experiment [4] deals with B16 mouse melanoma cells. The experiment is described as follows: cell viability in the B16 cell-based assay (Viability, B16 IC50). The settings on record: concentration causing 50% cell death, values greater than 10 represent a lack of cell death, read-out: Viability, B16 IC50. The procedure:
as §1, §2

Experiment [5] concerns the target T1, glucosylceramide synthase (Homo sapiens, UniProt Q16739).
T1 construct: Microsomes were isolated from A375 human melanoma cells; endogenous in cells; host or cells: A375 human melanoma cells (microsomal fraction, 100,000 g pellet)
T1 sequence (Q16739 1-394): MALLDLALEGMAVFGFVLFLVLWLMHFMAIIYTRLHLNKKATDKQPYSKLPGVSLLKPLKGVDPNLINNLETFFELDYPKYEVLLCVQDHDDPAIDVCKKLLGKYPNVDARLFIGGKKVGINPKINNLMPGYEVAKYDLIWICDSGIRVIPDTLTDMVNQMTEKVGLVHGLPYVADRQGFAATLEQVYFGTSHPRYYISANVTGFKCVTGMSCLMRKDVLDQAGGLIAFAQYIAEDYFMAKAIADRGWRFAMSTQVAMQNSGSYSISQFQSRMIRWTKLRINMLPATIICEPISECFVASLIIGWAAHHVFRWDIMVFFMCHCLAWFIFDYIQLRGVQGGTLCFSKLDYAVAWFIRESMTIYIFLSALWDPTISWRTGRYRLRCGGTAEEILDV
Description: microsomal assay measuring conversion of ceramide to glucosylceramide by HPLC (GCS IC50). Type of experiment: biochemical. The conditions noted are these: concentration causing 50% inhibition of glucosylceramide synthase activity. The procedure:
Inhibition of glucosylceramide synthase activity for certain compounds of the invention were measured with 1) a microsomal assay that directly measures the conversion of ceramide to glucosylceramide by HPLC and 2) second, cell based, phenotypic assay that monitors cell surface expression of the downstream lipid GM3 by antibody mediated immunofluorescence. The cell based assay was performed in two different cell types, B16 and C32. Cell viability was also assessed in the second, cell-based assay.
The “Compound Number” in the table corresponds to the compound disclosed in the Example of the same number. The results of the microsomal assay are expressed as “GCS IC50”, which represents the concentration of the compound causing 50% inhibition of glucosylceramide synthase activity. The results of the cell based assays (performed in two different cell systems, i.e. B16 mouse melanoma or C32 human melanoma cells) are expressed as “GM3 B16 IC50” or “GM3 C32 IC50” for the B16 assay and the C32 assay, respectively. These values represent the concentration of the compound causing 50% inhibition of GM3 expression on the cell surface. The results of the viability assays are expressed as “Viability, B16 IC50” or “Viability, C32 IC50”, respectively. These values represent the concentration of the compound causing 50% cell death. Values greater than 10 represent a lack of cell death.

Where two headings read alike, the source gives them in different places. Where only a bound is given, the exact number is not on record here.

One may read the IC50 as the concentration needed to halve the response being measured. For `C[C@@H]1CN(C(=O)NC2(C)CCN3CCC2CC3)C[C@H](C)N1c1nccc(-c2ccccc2)n1` (relative stereo) [Example 147, cis-3,5-Dimethyl-N-(4-methyl-1-azabicyclo[3.2.2]nonan-4-yl)-4-(4-phenylpyrimidin-2-yl)piperazine-1-carboxamide], the IC50 is 96 nM in experiment [1] (Mus musculus); 1 nM in experiment [2] (Homo sapiens); 1000 nM in experiment [3] (Homo sapiens, C32, C32 cells); 3510 nM in experiment [4] (Mus musculus, B16, B16 cells); 5.45 nM in experiment [5].
Regarding `CC1(NC(=O)C2CCN(c3nccc(-c4ccc(F)cc4)n3)CC2)CCN2CCC1CC2` (single isomer, unassigned) [Example 42, 1-(4-(4-Fluorophenyl)pyrimidin-2-yl)-N-(4-methyl-1-azabicyclo[3.2.2]nonan-4-yl)piperidine-4-carboxamide], the IC50 in experiment [1] was 918 nM; in experiment [2], 9.82 nM; in experiment [3] (Homo sapiens, C32, C32 cells) it was 4640 nM; in experiment [4] (Mus musculus, B16, B16 cells), 7660 nM; in experiment [5], 94.1 nM.
`CC1(NC(=O)C2CCN(c3nccc(-c4ccc(F)cc4)n3)CC2)CCN2CCC1CC2` (single isomer, unassigned) [Example 43, 1-(4-(4-Fluorophenyl)pyrimidin-2-yl)-N-(4-methyl-1-azabicyclo[3.2.2]nonan-4-yl)piperidine-4-carboxamide]: the IC50 in experiment [1] worked out at 6.54 nM; in experiment [2] it was 0.0655 nM; in experiment [3] (C32 cells), 8920 nM; in experiment [4] (B16 cells), 7140 nM; in experiment [5] it was 1.25 nM.
Consider `CC1(NC(=O)C2CCN(c3cncc(-c4ccc(F)cc4)n3)CC2)CCN2CCC1CC2` (single isomer, unassigned) [Example 47, 1-(6-(4-Fluorophenyl)pyrazin-2-yl)-N-(4-methyl-1-azabicyclo[3.2.2]nonan-4-yl)piperidine-4-carboxamide], for which the IC50 in experiment [1] stood at 2190 nM; in experiment [2] it was 50 nM; in experiment [3] (C32 cells), 3160 nM; in experiment [4] (Mus musculus, B16, B16 cells), 7830 nM; in experiment [5], 258 nM.
As to `CC1(NC(=O)C2CCN(c3cncc(-c4ccc(F)cc4)n3)CC2)CCN2CCC1CC2` (single isomer, unassigned) [Example 48, 1-(6-(4-Fluorophenyl)pyrazin-2-yl)-N-(4-methyl-1-azabicyclo[3.2.2]nonan-4-yl)piperidine-4-carboxamide], the IC50 in experiment [1] came to 47.7 nM; in experiment [2] it was 0.096 nM; in experiment [3] (C32 cells) it was 5.17 nM; in experiment [4] (B16 cells), 7760 nM; in experiment [5] it was 1.61 nM.
As for `COCCOCc1ccc(-c2nc(N3CCC(F)(C(=O)NC4(C)CCN5CCC4CC5)CC3)ncc2F)cc1` (single isomer, unassigned) [Example 78, 4-Fluoro-1-(5-fluoro-4-(4-((2-methoxyethoxy)methyl)phenyl)pyrimidin-2-yl)-N-(4-methyl-1-azabicyclo[3.2.2]nonan-4-yl)piperidine-4-carboxamide], the IC50 amounted to 3120 nM in experiment [1]; 4.87 nM in experiment [2]; 1000 nM in experiment [3] (C32 cells); 3540 nM in experiment [4] (Mus musculus, B16, B16 cells); 64.7 nM in experiment [5].
`COCCOCc1ccc(-c2nc(N3CCC(F)(C(=O)NC4(C)CCN5CCC4CC5)CC3)ncc2F)cc1` (single isomer, unassigned) [Example 79, 4-Fluoro-1-(5-fluoro-4-(4-((2-methoxyethoxy)methyl)phenyl)pyrimidin-2-yl)-N-(4-methyl-1-azabicyclo[3.2.2]nonan-4-yl)piperidine-4-carboxamide]: the IC50 in experiment [1] was determined as 109 nM; in experiment [2] it was 0.191 nM; in experiment [3] (C32 cells), 215 nM; in experiment [4] (B16 cells) it was 4280 nM; in experiment [5], 1.8 nM.
On to `C[C@@H]1CN(C(=O)NC2(C)CCN3CCC2CC3)CCN1c1nccc(-c2ccccc2)n1` (single isomer, unassigned) [Example 137], for which the IC50 in experiment [1] stood at 50.1 nM; in experiment [2] it was 0.198 nM; in experiment [3] (C32 cells) it was 1000 nM; in experiment [4] (B16 cells), 5720 nM; in experiment [5], 3.2 nM.
On to `C[C@@H]1CN(C(=O)NC2(C)CCN3CCC2CC3)CCN1c1nccc(-c2ccccc2)n1` (single isomer, unassigned) [Example 138], for which the IC50 was more than 10000 nM in experiment [1]; 63.6 nM in experiment [2]; 3160 nM in experiment [3] (C32 cells); 9310 nM in experiment [4] (Mus musculus, B16, B16 cells); 902 nM in experiment [5].
For the compound `C[C@H]1CN(C(=O)NC2(C)CCN3CCC2CC3)CCN1c1nccc(-c2ccccc2)n1` (single isomer, unassigned) [Example 139], the IC50 in experiment [1] amounted to 67 nM; in experiment [2] it was 1.37 nM; in experiment [3] (Homo sapiens, C32, C32 cells) it was 3160 nM; in experiment [4] (Mus musculus, B16, B16 cells) it was 5250 nM; in experiment [5], 17.3 nM.
Turning to `C[C@H]1CN(C(=O)NC2(C)CCN3CCC2CC3)CCN1c1nccc(-c2ccccc2)n1` (single isomer, unassigned) [Example 140], the IC50 came to 9080 nM in experiment [1]; 574 nM in experiment [2]; 3160 nM in experiment [3] (C32 cells); 6490 nM in experiment [4] (B16 cells); 46.9 nM in experiment [5].
Take `CCC1(NC(=O)NC2(c3ccc(-c4ccc(COCCOC)cc4)cc3)CC2)CN2CCC1CC2` (single isomer, unassigned) [Example 208, 1-(3-Ethylquinuclidin-3-yl)-3-(1-(4′-((2-methoxyethoxy)methyl)-[1,1′-biphenyl]-4-yl)cyclopropyl)urea]: the IC50 was 988 nM in experiment [1]; 73.9 nM in experiment [2]; not below 10000 nM in experiment [3] (C32 cells); not below 10000 nM in experiment [4] (Mus musculus, B16, B16 cells); 2710 nM in experiment [5].
For `CCC1(NC(=O)NC2(c3ccc(-c4ccc(COCCOC)cc4)cc3)CC2)CN2CCC1CC2` (single isomer, unassigned) [Example 209, 1-(3-Ethylquinuclidin-3-yl)-3-(1-(4′-((2-methoxyethoxy)methyl)-[1,1′-biphenyl]-4-yl)cyclopropyl)urea], the half-inhibitory concentration (IC50) in experiment [1] was 39.2 nM; in experiment [2], 1.05 nM; in experiment [3] (C32 cells), 1780 nM; in experiment [4] (B16 cells) it was not below 10000 nM; in experiment [5] it was 17.4 nM.
`COCCOc1ccc(-c2ccc(C(C)(C)NC(=O)OC3CCN4CCC3CC4)nc2)cc1` (single isomer, unassigned) [Example 348, 1-Azabicyclo[3.2.2]nonan-4-yl 2-(5-(4-(2-methoxyethoxy)phenyl)pyridin-2-yl)propan-2-ylcarbamate]: the 50% inhibitory concentration (IC50) in experiment [1] is 87.2 nM; in experiment [2], 3.52 nM; in experiment [3] (Homo sapiens, C32, C32 cells), 1000 nM; in experiment [4] (Mus musculus, B16, B16 cells) it was not below 10000 nM; in experiment [5], 27.8 nM.
Regarding `COCCOc1ccc(-c2ccc(C(C)(C)NC(=O)OC3CCN4CCC3CC4)nc2)cc1` (single isomer, unassigned) [Example 349, 1-Azabicyclo[3.2.2]nonan-4-yl 2-(5-(4-(2-methoxyethoxy)phenyl)pyridin-2-yl)propan-2-ylcarbamate], the IC50 in experiment [1] is 233 nM; in experiment [2], 14.4 nM; in experiment [3] (C32 cells) it was 1000 nM; in experiment [4] (B16 cells), not below 10000 nM; in experiment [5], 250 nM.

These data come from US12060349B2, “Glucosylceramide synthase inhibitors” (Genzyme Corporation, priority 2012, dated 2024).
